Laboratory results from patent publication US11820766B2, “Monoacylglycerol lipase modulators” (Janssen Pharmaceutica NV, priority 2018, dated 2023).

What follows are compounds tested against T1, human MGL from HeLa cells (Homo sapiens, UniProt Q99685) (assay: In vitro MGL activity assay: [glycerol-1,3-3H]-oleyl glycerol cleavage by MGL from HeLa cells). Conditions: 300 nM [Glycerol-1,3-3H]-oleyl glycerol, one hour.
T1 construct: combining endogenously expressed MGL from HeLa cells with test compounds; endogenous in cells; host or cells: HeLa cells / cell homogenates
T1 sequence (Q99685 1-303): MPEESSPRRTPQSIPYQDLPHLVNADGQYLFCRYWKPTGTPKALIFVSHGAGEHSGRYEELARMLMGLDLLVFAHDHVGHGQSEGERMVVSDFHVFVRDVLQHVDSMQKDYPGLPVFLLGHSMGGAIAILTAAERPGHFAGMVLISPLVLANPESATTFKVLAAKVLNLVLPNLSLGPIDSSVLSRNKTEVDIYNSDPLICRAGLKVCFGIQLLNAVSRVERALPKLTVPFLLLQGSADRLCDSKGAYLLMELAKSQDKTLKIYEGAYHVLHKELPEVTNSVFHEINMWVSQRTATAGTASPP
Assay type: biochemical
Text: MGL is the predominant hydrolase in HeLa cells/cell homogenates.

SMILES	IC50 [nM]
C[C@H]1c2nn(C)c(-c3cc(F)c(F)c(F)c3)c2CCN1C(=O)c1n[nH]c2ccc(F)cc12 [Example 364, [(7S)-2,7-Dimethyl-3-(3,4,5-trifluorophenyl)-5,7-dihydro-4H-pyrazolo[3,4-c]pyridin-6-yl]-(5-fluoro-1H-indazol-3-yl)methanone]	20.3
C[C@H]1c2nn(C)c(-c3cc(F)c(F)c(F)c3)c2CCN1C(=O)c1cc2[nH]ccc2cc1F [Example 353, [(7S)-2,7-Dimethyl-3-(3,4,5-trifluorophenyl)-5,7-dihydro-4H-pyrazolo[3,4-c]pyridin-6-yl]-(5-fluoro-1H-indol-6-yl)methanone]	48.5

Continued, values first:

IC50 [nM]	SMILES
8.18	C[C@H]1c2nn(C)c(-c3cc(F)c(F)c(F)c3)c2CCN1C(=O)c1cccc2c1COCC2 [Example 579, [(7S)-2,7-Dimethyl-3-(3,4,5-trifluorophenyl)-5,7-dihydro-4H-pyrazolo[3,4-c]pyridin-6-yl]-isochroman-8-yl-methanone]
7.52	C[C@H]1c2nn(C)c(-c3cc(F)c(F)c(F)c3)c2CCN1C(=O)c1ccc2c(c1)OCCC2 [Example 582, Chroman-7-yl-[(7S)-2,7-dimethyl-3-(3,4,5-trifluorophenyl)-5,7-dihydro-4H-pyrazolo[3,4-c]pyridin-6-yl]methanone]
35.9	COc1cc(F)cc(-c2c3c(nn2C)[C@H](C)N(C(=O)c2nccc(OC)c2Cl)CC3)c1 [Example 614, (3-Chloro-4-methoxy-2-pyridyl)-[(7S)-3-(3-fluoro-5-methoxy-phenyl)-2,7-dimethyl-5,7-dihydro-4H-pyrazolo[3,4-c]pyridin-6-yl]methanone]
6.39	Cc1ccn2ncc(C(=O)N3CCc4c(nn(C)c4-c4cc(F)c(F)c(F)c4)[C@@H]3C)c2c1 [Example 383, [(7S)-2,7-Dimethyl-3-(3,4,5-trifluorophenyl)-5,7-dihydro-4H-pyrazolo[3,4-c]pyridin-6-yl]-(5-methylpyrazolo[1,5-a]pyridin-3-yl)methanone]
803	Cc1nn2c(c1C(=O)N1CCc3c(nn(C)c3-c3cc(F)c(F)c(F)c3)[C@@H]1C)COC(C)(C)C2 [Example 556, [(7S)-2,7-Dimethyl-3-(3,4,5-trifluorophenyl)-5,7-dihydro-4H-pyrazolo[3,4-c]pyridin-6-yl]-(2,6,6-trimethyl-4,7-dihydropyrazolo[5,1-c][1,4]oxazin-3-yl)methanone]

Same assay, conditions: 300 nM [Glycerol-1,3-3H]-oleyl glycerol, one hour incubation

IC50 [nM]	SMILES
7.04	C[C@H]1c2nn(C)c(-c3cc(F)cc(F)c3)c2CCN1C(=O)c1ccc2nccnc2c1 (single isomer, unassigned) [Example 168]
174	COCc1cncc(C(=O)N2CCc3c(nn(C)c3-c3cccc(Cl)c3)[C@@H]2C)c1 [Example 120, (S)-(3-(3-Chlorophenyl)-2,7-dimethyl-2,4,5,7-tetrahydro-6H-pyrazolo[3,4-c]pyridin-6-yl)(5-(methoxymethyl)pyridin-3-yl)methanone]
87.6	C[C@H]1c2nn(C)c(-c3cc(F)c(F)c(F)c3)c2CCN1C(=O)c1cn(C)c2ncccc12 [Example 223, (S)-(2,7-Dimethyl-3-(3,4,5-trifluorophenyl)-2,4,5,7-tetrahydro-6H-pyrazolo[3,4-c]pyridin-6-yl)(1-methyl-1H-pyrrolo[2,3-b]pyridin-3-yl)methanone]
25.6	C[C@H]1c2nn(C)c(-c3cc(F)c(F)c(F)c3)c2CCN1C(=O)c1cnc2ccccn12 [Example 213, (S)-(2,7-Dimethyl-3-(3,4,5-trifluorophenyl)-2,4,5,7-tetrahydro-6H-pyrazolo[3,4-c]pyridin-6-yl)(imidazo[1,2-a]pyridin-3-yl)methanone]
132	CNC(=O)c1cccc(C(=O)N2CCc3c(nn(C)c3-c3cc(F)c(F)c(F)c3)[C@@H]2C)c1 [Example 266, 3-[(7S)-2,7-Dimethyl-3-(3,4,5-trifluorophenyl)-5,7-dihydro-4H-pyrazolo[3,4-c]pyridine-6-carbonyl]-N-methyl-benzamide]
